Experimental findings from patent US12398139B2, “Modulators of AMPA receptor signaling” (Centre for Addiction and Mental Health, priority 2019, dated 2025) are described below.

Structures can show the parent of a compound that is named as a salt.

Test [1] concerns HEK-293 cells expressing GAPDH and GluR2. The test can be described thus: AMPA mediated cell-death assay (CellTox Green Cytotoxicity Assay). Type of test: cell-based. The following applies: Homo sapiens, HEK293, AMPA 500 μM, CTZ 100 μM, CellTox Green fluorescence, read-out: Potency, inhibition of AMPA-mediated neurotoxicity (IC50, concentration at which 50% of cell death was prevented). As for the experimental part:
The ability of compounds to inhibit AMPA-mediated neurotoxicity was determined using the CellTox™ Green Cytotoxicity Assay (G8743) kit from Promega. In this assay, GAPDH and GluR2 are expressed in HEK-293 cells. AMPA (500 μM) was added to induce an AMPAR-mediated cell death signalling cascade. This is initiated by the GAPDH-GluR2 complex formation followed by the nuclear translocation of the complex, where it activates the p53-mediated cell death pathway. The presence of a compound which can block dimerization of GAPDH and GluR2 will prevent the nuclear translocation and the cell death and, thus this assay is an effective measure of the ability of a compound to prevent AMPA-mediated neurotoxicity and thus show therapeutic benefit in the treatment of MS.
The assay was performed as per the manufacture's instruction. Briefly, 293 cells stably expressing GluR1 and GluR2VENUS were transfected with pcDNA-RluC-GAPDH. AMPA (500 μM) were added to induce the cell death. CTZ (100 μM) was added to prevent AMPAR desensitization. Candidate molecules were added before the AMPA treatment to test its protective effect. Untreated cells and AMPA treated group were used as negative and positive control respectively. CellTox™ Green Reagent (˜5×) was then added to achieve a final concentration of 1× and cells were incubated at room temperature for 15 minutes (shielded from ambient light). The fluorescence intensity at 485-500 nmEx/520-530 nmEm was then measured and calculated as the percentage value of the positive control. The concentration at which 50% of cell death was prevented (IC50) was determined for each compound.
The potency was measured using the cell death assay described above.

The next test has as its target T1, GluR2/GAPDH complex (Homo sapiens, UniProt P42262).
T1 construct: host or cells: HEK293 cells stably transfected with GluR2-VENUS (lysate)
Briefly: Surface plasmon resonance target engagement assay (competitive GluR2-Venus affinity with GAPDH). The following applies: SPR, captured GluR2-VENUS, 100 nM GAPDH peptide, compound top concentration 10 μM; read-out: Potency, GluR2 Binding Affinity (competitive inhibition of GluR2-GAPDH interaction). How it is done: This is one of the most commonly used techniques to study modulation of protein-protein interactions by small molecule ligands, providing real-time measurement of binding affinities and association/dissociation kinetics of complexes (compound/protein) in a label-free environment. The ability of our lead compound to disrupt the interaction of GluR2/GAPDH complex was measured by the binding affinity. Compounds were analyzed for competitive GluR2-Venus protein affinity (with GAPDH recombinant protein) using a Reichert 2SPR system. The surface was first charged with nickel (500 μM NiCl2 in HBS-P buffer for 300 s at a flow rate of 5 μL/min). The dextran surface was then activated with a 1:1 mixture of N-ethyl-N-dimethylaminopropylcarbodiimide (EDC) and N-hydroxysuccinimide (NHS) on line for final concentrations of EDC and NHS of 37.5 mg/mL and 5.8 mg/mL, respectively, for 420 s at a flow rate of 25 μL/min. Anti-VENUS antibody was first immobilized by capture onto a 500 KDa CM Dextran sensor chip (Reichert), proceeded by activation of the carboxymethylated dextran surface for mild amine coupling, followed by a final blocking injection of 1 M ethanolamine, pH 8.5. GluR2-VENUS (lysate of HEK293 cells stably transfected with GluR2-VENUS) was then captured for 900 s at a flow rate of 25 μL/min followed by a final blocking injection of 2% BSA, for 300 s at a flow rate of 5 μL/min.
The surface plasmon resonance affinity assay was carried out in a PBS buffer consisting of 0.05% Tween 20. For affinity measurements, compound solutions were prepared using ten three-fold serial dilutions in running buffer from a 10 μM top concentration (prepared from DMSO stocks) along with a zero (running buffer) control, mixed with 100 nM GAPDH peptide (Sigma Aldrich). A flow rate of 30 μl/min was used with a 420 s contact time (using high performance injection parameters) followed by a 120 s dissociation phase. Results were analyzed by subtracting the signals of the reference surface from the signals for the protein-bound surfaces and performing a solvent correction. Competitive binding responses were normalized throughout the screen to the percentage of inhibition of the respective small molecule compound. Three independent experiments were performed.
The binding affinity was measured using the surface plasmon resonance assay described above.
On the technique in general: In SPR one partner is held on a chip, and binding of the other changes the refractive index at the surface.

T1 sequence (P42262 25-883, species assumed, one chain of several): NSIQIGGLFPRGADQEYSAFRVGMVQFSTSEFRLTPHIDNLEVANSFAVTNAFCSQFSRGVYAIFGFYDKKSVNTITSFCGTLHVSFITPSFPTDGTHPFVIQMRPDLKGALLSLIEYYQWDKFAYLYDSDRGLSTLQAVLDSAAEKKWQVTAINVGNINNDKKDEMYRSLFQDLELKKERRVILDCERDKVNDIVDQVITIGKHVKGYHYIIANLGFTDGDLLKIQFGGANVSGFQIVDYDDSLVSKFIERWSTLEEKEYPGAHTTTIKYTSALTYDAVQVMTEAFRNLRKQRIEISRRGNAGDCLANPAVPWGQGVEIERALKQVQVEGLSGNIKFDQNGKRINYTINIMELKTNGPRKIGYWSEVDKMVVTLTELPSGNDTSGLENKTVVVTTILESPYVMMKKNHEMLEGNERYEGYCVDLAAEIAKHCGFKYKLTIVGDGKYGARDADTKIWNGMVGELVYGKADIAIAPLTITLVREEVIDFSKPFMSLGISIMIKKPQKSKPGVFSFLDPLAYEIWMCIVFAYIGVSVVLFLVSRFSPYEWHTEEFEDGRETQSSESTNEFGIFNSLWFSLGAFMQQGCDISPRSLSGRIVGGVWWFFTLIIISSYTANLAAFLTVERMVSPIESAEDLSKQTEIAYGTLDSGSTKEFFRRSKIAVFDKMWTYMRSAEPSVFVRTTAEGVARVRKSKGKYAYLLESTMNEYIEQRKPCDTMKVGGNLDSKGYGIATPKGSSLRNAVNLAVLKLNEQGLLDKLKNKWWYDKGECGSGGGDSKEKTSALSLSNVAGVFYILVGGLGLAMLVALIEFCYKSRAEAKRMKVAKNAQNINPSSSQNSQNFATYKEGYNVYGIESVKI

As to `O=C(NC1CCCCC1)c1ccnc(N2Cc3cn(Cc4ccc(F)cc4)nc3C2)n1` [Compound 209, N-Cyclohexyl-2-(2-(4-fluorobenzyl)-2,6-dihydropyrrolo[3,4-c]pyrazol-5(4H)-yl)pyrimidine-4-carboxamide], the IC50 in test [1] worked out at 66 nM; at GluR2/GAPDH complex it was 99 nM.

In the case of `O=C(c1ccnc(N2Cc3cn(Cc4ccc(F)cc4)nc3C2)n1)N1CCOCC1` [Compound 211, (2-(2-(4-Fluorobenzyl)-2,6-dihydropyrrolo[3,4-c]pyrazol-5(4H)-yl)pyrimidin-4-yl)(morpholino)methanone], the figures for the IC50 (in test [1]; on GluR2/GAPDH complex) were 44 nM and 34 nM, respectively.

In the case of `CN1CCN(C(=O)c2ccnc(N3Cc4cn(Cc5ccc(F)cc5)nc4C3)n2)CC1` [Compound 212, (2-(2-(4-Fluorobenzyl)-2,6-dihydropyrrolo[3,4-c]pyrazol-5(4H)-yl)pyrimidin-4-yl)(4-methylpiperazin-1-yl)methanone], the IC50 was 20 nM in test [1] and 31 nM at GluR2/GAPDH complex.

Turning to `O=C(NC1CCCC1)c1ccnc(N2Cc3cn(Cc4ccc(F)cc4)nc3C2)n1` [Compound 213], the IC50 in test [1] turned out to be 24 nM; on GluR2/GAPDH complex, 20 nM.

As to `O=C(NC1CCCCC1)c1cncc(N2Cc3cn(Cc4ccc(F)cc4)nc3C2)n1` [Compound 214, N-Cyclohexyl-6-(2-(4-fluorobenzyl)-2,6-dihydropyrrolo[3,4-c]pyrazol-5(4H)-yl)pyrazine-2-carboxamide], the IC50 in test [1] worked out at 46 nM; on GluR2/GAPDH complex it was 24 nM.

For `O=C(NC1CCCC1)c1cccc(N2Cc3cn(Cc4ccc(F)cc4)nc3C2)c1` [Compound 215, N-Cyclopentyl-3-(2-(4-fluorobenzyl)-2,6-dihydropyrrolo[3,4-c]pyrazol-5(4H)-yl)benzamide], the figures for the IC50 (in test [1]; at GluR2/GAPDH complex) were 3.5 nM and 48 nM, respectively.

On to `CN(C)C(=O)c1cccc(N2Cc3cn(Cc4ccc(F)cc4)nc3C2)c1` [Compound 217, 3-(2-(4-Fluorobenzyl)-2,6-dihydropyrrolo[3,4-c]pyrazol-5(4H)-yl)-N,N-dimethylbenzamide], for which the IC50 in test [1] was 6.7 nM; on GluR2/GAPDH complex it was 67 nM.

For `CN1CCN(C(=O)c2cccc(N3Cc4cn(Cc5ccc(F)cc5)nc4C3)c2)CC1` [Compound 218, (3-(2-(4-Fluorobenzyl)-2,6-dihydropyrrolo[3,4-c]pyrazol-5(4H)-yl)phenyl)(4-methylpiperazin-1-yl)methanone], the IC50 came to 33 nM in test [1] and 99 nM on GluR2/GAPDH complex.

Consider `O=C(NCC(F)(F)F)c1cccc(N2Cc3cn(Cc4ccc(F)cc4)nc3C2)c1` [Compound 219, 3-(2-(4-Fluorobenzyl)-2,6-dihydropyrrolo[3,4-c]pyrazol-5(4H)-yl)-N-(2,2,2-trifluoroethyl)benzamide], for which the IC50 in test [1] turned out to be 28 nM; at GluR2/GAPDH complex, 14 nM.

Regarding `O=C(c1cccc(N2Cc3cn(Cc4ccc(F)cc4)nc3C2)c1)N1CCNCC1` [Compound 220, (3-(2-(4-Fluorobenzyl)-2,6-dihydropyrrolo[3,4-c]pyrazol-5(4H)-yl)phenyl)(piperazin-1-yl)methanone hydrochloride], the figures for the IC50 (in test [1]; on GluR2/GAPDH complex) were 15 nM and 85 nM, respectively.

`CCN(CC)C(=O)c1cncc(N2Cc3cn(Cc4ccc(F)cc4)nc3C2)n1` [Compound 231, N,N-Diethyl-6-(2-(4-fluorobenzyl)-2,6-dihydropyrrolo[3,4-c]pyrazol-5(4H)-yl)pyrazine-2-carboxamide]: the IC50 in test [1] amounted to 250 nM; on GluR2/GAPDH complex it was 86 nM.

Regarding `COc1ccc(Cn2cc3c(n2)CN(c2cncc(C(=O)N(C)C)n2)C3)cc1` [Compound 232, 6-(2-(4-Methoxybenzyl)-2,6-dihydropyrrolo[3,4-c]pyrazol-5(4H)-yl)-N,N-dimethylpyrazine-2-carboxamide], the figures for the IC50 (in test [1]; at GluR2/GAPDH complex) were 54 nM and 88 nM, respectively.

Turning to `COc1ccc(Cn2cc3c(n2)CN(c2cccc(C(=O)N(C)C)c2)C3)cc1` [Compound 233, 3-(2-(4-Methoxybenzyl)-2,6-dihydropyrrolo[3,4-c]pyrazol-5(4H)-yl)-N,N-dimethylbenzamide], the figures for the IC50 (in test [1]; on GluR2/GAPDH complex) were 62 nM and 33 nM, respectively.

`Cc1ccc(Cn2cc3c(n2)CN(c2cncc(C(=O)N(C)C)n2)C3)cc1` [Compound 234, N,N-Dimethyl-6-(2-(4-methylbenzyl)-2,6-dihydropyrrolo[3,4-c]pyrazol-5(4H)-yl)pyrazine-2-carboxamide]: the values for the IC50 (in test [1]; at GluR2/GAPDH complex) were 114 nM and 139 nM, respectively.

Consider `Cc1ccc(Cn2cc3c(n2)CN(c2cccc(C(=O)N(C)C)c2)C3)cc1` [Compound 235, N,N-Dimethyl-3-(2-(4-methylbenzyl)-2,6-dihydropyrrolo[3,4-c]pyrazol-5(4H)-yl)benzamide], for which the IC50 in test [1] was 656 nM; at GluR2/GAPDH complex, 1070 nM.

For `CN(C)C(=O)c1cncc(N2Cc3cn(Cc4cccc(F)c4)nc3C2)n1` [Compound 236, 6-(2-(3-Fluorobenzyl)-2,6-dihydropyrrolo[3,4-c]pyrazol-5(4H)-yl)-N,N-dimethylpyrazine-2-carboxamide], the results for the IC50 (in test [1]; at GluR2/GAPDH complex) were 5000 nM and 275 nM, respectively.

Take `CN(C)C(=O)c1cccc(N2Cc3cn(Cc4cccc(F)c4)nc3C2)c1` [Compound 237, 3-(2-(3-Fluorobenzyl)-2,6-dihydropyrrolo[3,4-c]pyrazol-5(4H)-yl)-N,N-dimethylbenzamide]: the results for the IC50 (in test [1]; at GluR2/GAPDH complex) were 47 nM and 30 nM, respectively.

As for `CN(C)C(=O)c1cncc(N2Cc3cn(CC4CCCCC4)nc3C2)n1` [Compound 238, 6-(2-(Cyclohexylmethyl)-2,6-dihydropyrrolo[3,4-c]pyrazol-5(4H)-yl)-N,N-dimethylpyrazine-2-carboxamide], the IC50 worked out at 167 nM in test [1] and 102 nM at GluR2/GAPDH complex.

As to `CN(C)C(=O)c1cccc(N2Cc3cn(CC4CCCCC4)nc3C2)c1` [Compound 239, 3-(2-(Cyclohexylmethyl)-2,6-dihydropyrrolo[3,4-c]pyrazol-5(4H)-yl)-N,N-dimethylbenzamide], the figures for the IC50 (in test [1]; on GluR2/GAPDH complex) were 26 nM and 41 nM, respectively.

In the case of `N#Cc1cccc(N2Cc3cn(Cc4ccc(F)cc4)nc3C2)c1` [Compound 240, 3-(2-(4-Fluorobenzyl)-2,6-dihydropyrrolo[3,4-c]pyrazol-5(4H)-yl)benzonitrile], the values for the IC50 (in test [1]; on GluR2/GAPDH complex) were 35 nM and 26 nM, respectively.

Take `N#Cc1ccnc(N2Cc3cn(Cc4ccc(F)cc4)nc3C2)n1` [Compound 241, 2-(2-(4-Fluorobenzyl)-2,6-dihydropyrrolo[3,4-c]pyrazol-5(4H)-yl)pyrimidine-4-carbonitrile]: the IC50 was 72 nM in test [1] and 20 nM at GluR2/GAPDH complex.

On to `O=C(c1cccc(N2Cc3cn(Cc4ccc(F)cc4)nc3C2)c1)N1CCCC1` [Compound 243, (3-(2-(4-Fluorobenzyl)-2,6-dihydropyrrolo[3,4-c]pyrazol-5(4H)-yl)phenyl)(pyrrolidin-1-yl)methanone], for which the IC50 came to 1150 nM in test [1] and 130 nM at GluR2/GAPDH complex.

For `O=C(c1ccnc(N2Cc3cn(Cc4ccc(F)cc4)nc3C2)n1)N1CCCCC1` [Compound 244, (2-(2-(4-Fluorobenzyl)-2,6-dihydropyrrolo[3,4-c]pyrazol-5(4H)-yl)pyrimidin-4-yl)(piperidin-1-yl)methanone], the IC50 (in test [1]; at GluR2/GAPDH complex) was 2.4 nM in each case.
